“Also recorded” adds a separate entry of the source.
What was measured:
[1] = tested on: colorectal cancer line COLO320 HSR; experiment: COLO320 HSR cells treated with paclitaxel, ecDNA by metaphase FISH and PCR gene panel
[2] = tested on: lung cancer cell line (H2170); experiment: H2170 cells treated with paclitaxel, ABCB1 transporter amplified ecDNA (FISH, qPCR); format: cell-based
Protocol: The lung cancer cell line (H2170) was assessed for the presence of oncogene-amplified ecDNA. […] The cell line was treated with paclitaxel and the presence and level of ecDNA was assessed for ABCB1 transporter amplified ecDNA. […] Gene copy number for the ABCB1 transporter was assessed by qPCR.

[3] = tested on: Glioblastoma cell line (GBM39); experiment: GBM39 cells treated with erlotinib, FISH for MYC amplification; format: cell-based; conditions: erlotinib 1 uM, 4 weeks, vs control cells
Protocol: Glioblastoma cell line (GBM39) was assessed for ecDNA in untreated samples and cells treated with the EGFR inhibitor erlotinib (1 uM). Cells were treated for 4 weeks and then assessed by FISH for amplification of MYC ecDNA. […] Cells treated with the erlotinib developed brightly staining MYC amplification on ecDNA. Amplification of MYC on ecDNA and on HSR was quantified from the FISH images in control and treated cells.

[4] = tested on: gastric cancer cell line SNU16; experiment: SNU16 cells treated with infigratinib over about 80 days; relative copy number by metaphase DAPI/FISH; format: cell-based
Protocol: A gastric cancer cell line SNU16 was assessed for the presence of ecDNA using metaphase DAPI/FISH using probes to detect MYC, FGFR2 and EGFR. […] SNU16 cells were then treated with the FGFR inhibitor infigratinib over the course of about 80 days. ecDNA was assessed by metaphase DAPI/FISH and relative copy number for MYC, FGFR2 and EGFR was tracked at day 0 and 5 additional time points.

[5] = tested on: gastric cancer CDX model; experiment: gastric cancer CDX model, 7-day multi-dosing experiment; format: in vivo, mice
Protocol: The ecDTx agent was further tested in the gastric cancer CDX model in a 7-day multi-dosing experiment. Mice were treated with vehicle only (PO; QDx 7 days), with infigratinib alone (15 mg/kg PO;QD x 7 days), the ecDTx CHK1 inhibitor (20 mg/kg SC;Q2D x 4 doses) or with a combination of infigratinib and the ecDTx CHK1 inhibitor (same dosing as with individual agents).
Tumor volume at day 6 is shown in the box and whisker graph in FIG. 4B. […] Copy number for MYC and FGFR2 was evaluated in the tumors from the treated mice. […] This increase was abrogated in the presence of the ecDTx agent. MYC and FGFR2 expression was also evaluated in the tumors of the treated mice (FIG. 4D).

[6] = tested on: gastric cancer CDX SNU16 mouse model; experiment: gastric cancer CDX SNU16 mouse model, tumor growth over 50 days and copy number in tumors; format: in vivo, mice
Protocol: To assess the effect of an ecDTx agent on gastric cancer and ecDNA development, a gastric cancer CDX SNU16 mouse model was treated with vehicle only, with infigratinib alone (15 mg/kg PO;QD), the ecDTx CHK1 inhibitor (20 mg/kg SQ;Q2D) or with a combination of infigratinib (15 mg/kg PO;QD) and the ecDTx CHK1 inhibitor (20 mg/kg SQ;Q2D). Tumor growth in the animals was monitored over 50 days. […] The effect of the combination was further assessed by evaluating copy number for MYC and FGFR2 in the tumors from the treated mice. […] FGFR2 amplification was abrogated in the presence of the ecDTx agent alone or when used in combination with infigratinib. The presence of the FGRF2 and MYC amplification on ecDNA was validated by FISH (FIG. 3C).

[7] = tumors from treated mice, 50-day study

CC(=O)O[C@H]1C(=O)[C@@]2(C)[C@H]([C@H](OC(=O)c3ccccc3)[C@]3(O)C[C@H](OC(=O)[C@H](O)[C@@H](NC(=O)c4ccccc4)c4ccccc4)C(C)=C1C3(C)C)[C@]1(OC(C)=O)CO[C@@H]1C[C@@H]2O [paclitaxel]
amplification of various genes ([1]; PCR with a panel of genes, paclitaxel-treated cells): highest amount of amplification was seen with ABCB1
copy number of ecDNA harboring the ABCB1 drug efflux pump ([1]; paclitaxel resistant cells, metaphase FISH): high copy number
copy number of the ABCB1 transporter amplified ecDNA ([2]; FISH, vs untreated controls): marked increase
gene copy number for the ABCB1 transporter ([2]; qPCR, vs untreated control): dramatically higher; also recorded: significant increase

C#Cc1cccc(Nc2ncnc3cc(OCCOC)c(OCCOC)cc23)c1 [erlotinib]
MYC amplification on HSR [3]: did not show any significant difference
MYC amplification on ecDNA [3]: dramatic increase; also recorded: significant increase

CCN1CCN(c2ccc(Nc3cc(N(C)C(=O)Nc4c(Cl)c(OC)cc(OC)c4Cl)ncn3)cc2)CC1 [infigratinib]
copy number of FGFR2 ([4]; after about 10 days of treatment): reduced dramatically
copy number of EGFR ([4]; treatment over about 80 days): rapidly increased
copy number of MYC ([4]; treatment over about 80 days): rapidly increased
FGFR2 expression in the tumors [5]: markedly increased
MYC expression in the tumors [5]: similar
copy number of FGFR2 in the tumors [5]: dramatically higher than the other groups
copy number of MYC in the tumors [5]: relatively similar
tumor growth ([6]; compared to vehicle, over 50 days, infigratinib 15 mg/kg PO QD, ecDTx CHK1 inhibitor 20 mg/kg SQ Q2D): decreased tumor growth
trend at the later time points (resistance) ([6]; later time points of 50 days, infigratinib 15 mg/kg PO QD): suggested resistance was beginning to develop
copy number of FGFR2 in the tumors [6, 7]: dramatically higher than the other groups
copy number of MYC in the tumors [6, 7]: relatively similar

Reference: patent US20230272485A1, “REPLICATION STRESS PATHWAY AGENT COMPOSITIONS AND METHODS FOR TREATING CANCER” (Boundless Bio, Inc., priority 2022, published 2023)
